This passage reports Km results from paper PMC9299796, “A Specialized Dehydrogenase Provides L‐Phenyllactate for FR900359 Biosynthesis” (Chembiochem, 2021).

The test deals with FrsC. The settings on record: 0.5 mM NADPH, pH 6, 30 °C, 1 μM FrsC, tag removed.

One may read the Km as the concentration of substrate that gives half-maximal velocity. As to `O=C(O)C(=O)Cc1ccccc1` [phenylpyruvic acid], the Km was determined as 1370 ± 410 µM.
